Measurements taken from patent publication US9150638B2, “Factor XII inhibitors for treating interstitial lung disease” (Justus-Liebig-Universität Giessen, priority 2010, dated 2015).

B1: FXIIa: activated factor XII (American Diagnostica) used to stimulate fibroblasts (protein)
chain: IPPWEAPKEHKYKAEEHTVVLTVTGEPCHFPFQYHRQLYHKCTHKGRPGPQPWCATTPNFDQDQRWGYCLEPKKVKDHCSKHSPCQKGGTCVNMPSGPHCLCPQHLTGNHCQKEKCFEPQLLRFFHKNEIWYRTEQAAVARCQCKGPDAHCQRLASQACRTNPCLHGGRCLEVEGHRLCHCPVGYTGAFCDVDTKASCYDGRGLSYRGLARTTLSGAPCQPWASEATYRNVTAEQARNWGLGGHAFCRNPDNDIRPWCFVLNRDRLSWEYCDLAQCQTPTQAAPPTPVSPRLHVPLMPAQPAPPKPQPTTRTPPQSQTPGALPAKREQPPSLTRNGPLSCGQRLRKSLSSMTRVVGGLVALRGAHPYIAALYWGHSFCAGSLIAPCWVLTAAHCLQDRPAPEDLTVVLGQERRNHSCEPCQTLAVRSYRLHEAFSPVSYQHDLALLRLQEDADGSCALLSPYVQPVCLPSGAARPSETTLCQVAGWGHQFEGAEEYASFLQEAQVPFLSLERCSAPDVHGSSILPGMLCAGFLEGGTDACQGDSGGPLVCEDQAAERRLTLQGIISWGSGCGDRNKPGVYTDVAYYLAWIREHTVS

Key:
FXII = experiment: TGF-β1-induced FXII expression in HLF; format: cell-based, human; conditions: for FXII expression in response to TGF-β1 (Western blot): HLF treated with inhibitor 1 h prior to TGF-β1 for 48 h
Protocol: Human lung specimens of the pulmonary parenchyma and mouse lungs were chopped into <1 mm^3 pieces. The minced pieces were washed twice with PBS and then plated in 100-mm dishes (Greiner-bio-one, Frickenhausen, Germany). The specimens were cultured with Dulbecco's modified Eagle's medium (DMEM; Invitrogen, Karlsruhe, Germany) supplemented with 10% fetal calf serum (FCS; HyClone, South Logan, UT), and 1% penicillin/streptomycin (Invitrogen) in humidified atmosphere of 5% CO2 at 37° C. Purity of isolated fibroblasts was verified by positive staining for vimentin, fibronectin and collagen IV. All experiments were carried out with lung fibroblasts from passages 3-4. The mouse NIH3T3 fibroblasts were cultured in DMEM supplemented with 10% FCS, and 1% penicillin/streptomycin in humidified atmosphere of 5% CO2 at 37° C.
(§1) Proteins separated on SDS polyacrylamide gel were transferred to a PVDF membrane (Amersham Biosciences, Freiburg, Germany) using wet transfer technique in transfer buffer (25 mM Tris, 192 mM Glycine, 20% (v/v) Methanol) for 1 h at 100V. After blocking with 5% non-fat dry milk in tris-buffered saline (TBS; 25 mM Tris-Cl, 150 mM NaCl, pH 7.5) containing 0.1% (v/v) Tween 20 (TBS-T), the membranes were incubated at 4° C. overnight with appropriate primary antibody diluted in 1% BSA in TBS-T. After 1 h incubation with peroxidase-labelled secondary antibody (all from Dako, Gostrup, Denmark) proteins were detected using ECL Plus Kit (Amersham Biosciences, Freiburg, Germany). To determine the amounts of protein loaded on the gel, blots were in 1 hour (stripping buffer: 100 mM Glycine, 1% HCl) and reprobed using an anti-β-actin or appropriate anti-pan antibody.
Pre-designed, commercially available siRNA sequences directed against human Smad 3 (Dharmacon, Chicago, Ill.), human JNK1 (Abnova, Heidelberg, Germany), and an universal negative-control siRNA (Ambion, Austin, Tex.) were employed. Cells were treated with siRNA (250 nM each) using the X-treme Gene siRNA Transfection Reagent (Roche). The siRNA-mediated downregulation of the target genes was assessed 72 h after transfection by Western blotting.

murine lung fibroblasts = experiment: Proliferation assay, [3H]-thymidine incorporation after FXIIa stimulation; format: cell-based; conditions: for FXIIa-induced proliferation ([3H]-thymidine incorporation): added or preincubated 1-2 hours before FXIIa, 10.0 μM PD98059, 5 μM SP600125, 0.7 μM Wortmannin, 3 μM SB203580, blocking antibodies 5 μg/ml
Protocol: Human lung specimens of the pulmonary parenchyma and mouse lungs were chopped into <1 mm^3 pieces. The minced pieces were washed twice with PBS and then plated in 100-mm dishes (Greiner-bio-one, Frickenhausen, Germany). The specimens were cultured with Dulbecco's modified Eagle's medium (DMEM; Invitrogen, Karlsruhe, Germany) supplemented with 10% fetal calf serum (FCS; HyClone, South Logan, UT), and 1% penicillin/streptomycin (Invitrogen) in humidified atmosphere of 5% CO2 at 37° C. Purity of isolated fibroblasts was verified by positive staining for vimentin, fibronectin and collagen IV. All experiments were carried out with lung fibroblasts from passages 3-4. The mouse NIH3T3 fibroblasts were cultured in DMEM supplemented with 10% FCS, and 1% penicillin/streptomycin in humidified atmosphere of 5% CO2 at 37° C. The primary murine lung fibroblasts were seeded in 48-well plates and starved in serum free DMEM (Dulbecco's Modified Eagle's Medium) for 24 hours prior to FXIIa (American Diagnostica, Stamford, Conn.) stimulation. In some experiments cells were preincubated with 5 μg/ml anti-uPAR (R&D Systems, Wiesbaden, Germany), anti-β1-integrin or anti-α5-integrin (both from Millipore, Billerica, Mass.) blocking antibodies 1-2 hours before exposure to FXIIa. In addition in some experiment 10.0 μM PD98059, 5 μM SP600125, 0.7 μM Wortmannin, 3 μM SB203580 (all from Calbiochem, Darmstadt, Germany) were added to the cell culture medium 1-2 hours prior to the addition of FXIIa. Cells were treated with 3-9 μg/ml FXIIa alone or in the presence of its specific inhibitors: Corn Trypsin Inhibitor ([…]-chloromethylketone (PCK, Bachem, Weil am Rhein, Germany) or uPAR synthetic peptides. After 24-36 hours the cells were exposed to [3H]Thymidine (0.2 μCi per well) for 6-12 hours, rinsed three times with PBS and solubilized with 0.2 ml 0.5M sodium hydroxide. 0.1 ml of the solubilized material was quantified by liquid scintillation counting (TRI-CARB® 1500, A Canbera Company, Meriden, Conn.). [^3H]Thymidine incorporation was expressed as absolute radioactivity (counts per minute per well).

cyclin D1 = experiment: Immunoblot of cyclin D1 expression after FXIIa stimulation; format: cell-based, murine; conditions: 6 hours after 6 μg/ml FXIIa stimulation
Protocol: as §1

Molecule	FXII expression in response to TGF-β1 (Western blot) (FXII)	FXIIa-induced proliferation ([3H]-thymidine incorporation) (murine lung fibroblasts)	synthesis of FXII in HLF (FXII; exposure to 10 ng/ml TGF-β1)	DNA synthesis ([3H]-thymidine incorporation) after FXIIa treatment (murine lung fibroblasts; increasing concentration of FXIIa)	cyclin D expression (cyclin D1)
COc1cccc(-c2cc(=O)c3ccccc3o2)c1N [PD98059, reference compound]	No change in FXII expression	reduction of murine lung fibroblasts proliferation	–	–	–
C[S+]([O-])c1ccc(-c2nc(-c3ccncc3)c(-c3ccc(F)cc3)[nH]2)cc1 (stereo not shown) [SB203580, reference compound]	No change in FXII expression	No change in DNA sythesis	–	–	–
TGF-β1: cytokine (R&D Systems) used at 10 ng/ml to stimulate cells	–	–	stimulated the synthesis of FXII in a time dependent manner	–	–
B1	–	–	–	dose-dependent increase	increased
